Experimental data taken from patent US9670157B2, “Benzylamine derivatives” (KALVISTA PHARMACEUTICALS LIMITED, priority 2013, dated 2017).

Tests used:
plasmin = plasmin (Homo sapiens (Human), UniProt P00747); experiment: Determination of Enzyme Selectivity: plasmin; assay type: biochemical; conditions: substrate at Km concentration
Description: (§1) Human serine protease enzymes plasmin, thrombin, trypsin, Factor Xa and Factor XIIa were assayed for enzymatic activity using an appropriate fluorogenic substrate. Protease activity was measured by monitoring the accumulation of liberated fluorescence from the substrate over 5 minutes. The linear rate of fluorescence increase per minute was expressed as percentage (%) activity. The Km for the cleavage of each substrate was determined by standard transformation of the Michaelis-Menten equation.

trypsin = experiment: Determination of Enzyme Selectivity: trypsin; assay type: biochemical, Human; conditions: substrate at Km concentration
Description: as §1

Human plasma kallikrein = Human plasma kallikrein (Homo sapiens (Human), UniProt P03952); experiment: Determination of the IC50 for Plasma Kallikrein; assay type: biochemical; conditions: 37° C., fluorogenic substrate H-DPro-Phe-Arg-AFC; read-out: IC50 (human PKal)
Description: Human plasma kallikrein (Protogen) was incubated at 37° C. with the fluorogenic substrate H-DPro-Phe-Arg-AFC and various concentrations of the test compound. Residual enzyme activity (initial rate of reaction) was determined by measuring the change in optical absorbance at 410 nm and the IC50 value for the test compound was determined.

thrombin = thrombin (Homo sapiens (Human), UniProt P00734); experiment: Determination of Enzyme Selectivity: thrombin; assay type: biochemical; conditions: substrate at Km concentration
Description: as §1

[1] = Pharmacokinetics following a single oral dose in rats; assay type: in vivo; conditions: rat, nominal 10 mg/kg, male Sprague-Dawley rats, plasma
Description: Pharmacokinetic studies of selected examples were performed to assess the pharmacokinetics following a single oral dose in male Sprague-Dawley rats. Typically, either two or three rats were given a single po dose of 5 mL/kg of a nominal 2 mg/mL (10 mg/kg) composition of test compound in either 5% cremophor:5% ethanol:90% phosphate buffered saline or 20% Labrasol:80% water. Following dosing, blood samples were collected over a period of 8 hours. Typical sample times include 5, 15 and 30 minutes then 1, 2, 4, 6 and 8 hours. Following collection, blood samples were centrifuged and the plasma fraction analysed for concentration of test compound by LCMS.

Factor XIIa = Factor XIIa (Homo sapiens (Human), UniProt P00748); experiment: Determination of Enzyme Selectivity: Factor XIIa; assay type: biochemical; conditions: substrate at Km concentration
Description: as §1

Human KLK1 = Human KLK1 (Homo sapiens (Human), UniProt P06870); experiment: Determination of the IC50 for KLK1; assay type: biochemical; conditions: 37° C., fluorogenic substrate H-DVal-Leu-Arg-AFC
Summary of the method: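 KLK1 inhibition was measured in vitro following standard published methods. Human KLK1 (Callbiochem) was incubated at 37° C. with the fluorogenic substrate H-DVal-Leu-Arg-AFC in the presence of a range of test compound concentrations. Residual enzyme activity, taken as the initial reaction rate, was followed by the change in optical absorbance at 410 nm, and IC50 values were derived.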

Factor XIIa, sequence (P00748 373-615): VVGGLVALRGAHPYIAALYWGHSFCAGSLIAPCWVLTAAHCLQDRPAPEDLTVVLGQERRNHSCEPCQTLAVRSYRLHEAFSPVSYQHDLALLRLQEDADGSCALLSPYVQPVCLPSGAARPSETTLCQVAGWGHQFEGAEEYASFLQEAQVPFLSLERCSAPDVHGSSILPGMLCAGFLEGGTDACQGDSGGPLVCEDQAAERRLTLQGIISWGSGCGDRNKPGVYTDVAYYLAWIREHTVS
Human plasma kallikrein, sequence (P03952 391-638): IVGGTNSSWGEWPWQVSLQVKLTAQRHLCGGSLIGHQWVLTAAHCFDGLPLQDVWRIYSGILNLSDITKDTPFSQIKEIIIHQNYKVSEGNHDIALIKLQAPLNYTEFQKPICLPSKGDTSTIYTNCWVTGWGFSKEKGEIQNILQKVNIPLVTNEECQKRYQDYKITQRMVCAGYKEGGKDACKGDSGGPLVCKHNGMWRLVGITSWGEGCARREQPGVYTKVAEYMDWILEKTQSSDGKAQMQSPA
Human plasma kallikrein, sequence (P03952 20-390 partner): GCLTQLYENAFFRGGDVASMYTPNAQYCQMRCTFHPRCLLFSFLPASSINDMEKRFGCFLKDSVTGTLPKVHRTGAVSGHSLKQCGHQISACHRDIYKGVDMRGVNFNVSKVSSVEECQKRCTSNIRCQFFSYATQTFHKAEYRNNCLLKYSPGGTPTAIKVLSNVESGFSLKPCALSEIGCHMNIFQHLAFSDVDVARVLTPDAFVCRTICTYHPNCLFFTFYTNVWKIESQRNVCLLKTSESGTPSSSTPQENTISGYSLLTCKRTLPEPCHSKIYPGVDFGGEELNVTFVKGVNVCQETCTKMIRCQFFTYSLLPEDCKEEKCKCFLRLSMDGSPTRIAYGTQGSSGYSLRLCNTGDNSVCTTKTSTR
plasmin, sequence (P00747 581-810): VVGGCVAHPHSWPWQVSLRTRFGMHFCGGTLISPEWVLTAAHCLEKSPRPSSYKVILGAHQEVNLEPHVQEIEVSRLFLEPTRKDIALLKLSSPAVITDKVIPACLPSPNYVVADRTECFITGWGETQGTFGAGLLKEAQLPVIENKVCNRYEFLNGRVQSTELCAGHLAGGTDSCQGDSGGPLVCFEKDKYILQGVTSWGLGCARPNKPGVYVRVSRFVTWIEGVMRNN
plasmin, sequence (P00747 97-580 partner): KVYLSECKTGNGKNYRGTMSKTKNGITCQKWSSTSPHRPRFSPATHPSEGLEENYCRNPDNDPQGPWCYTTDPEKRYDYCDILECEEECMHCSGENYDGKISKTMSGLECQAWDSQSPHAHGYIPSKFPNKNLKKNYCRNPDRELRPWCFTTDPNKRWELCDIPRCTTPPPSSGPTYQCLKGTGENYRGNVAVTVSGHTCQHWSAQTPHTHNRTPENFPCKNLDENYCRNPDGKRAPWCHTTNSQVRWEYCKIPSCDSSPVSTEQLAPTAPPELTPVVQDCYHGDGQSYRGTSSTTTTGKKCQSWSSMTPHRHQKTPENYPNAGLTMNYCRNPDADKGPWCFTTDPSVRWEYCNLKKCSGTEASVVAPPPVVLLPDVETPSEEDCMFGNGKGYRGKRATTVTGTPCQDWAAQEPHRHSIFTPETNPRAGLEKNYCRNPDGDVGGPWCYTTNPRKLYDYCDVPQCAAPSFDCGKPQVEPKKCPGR
Human KLK1, sequence (P06870 25-262): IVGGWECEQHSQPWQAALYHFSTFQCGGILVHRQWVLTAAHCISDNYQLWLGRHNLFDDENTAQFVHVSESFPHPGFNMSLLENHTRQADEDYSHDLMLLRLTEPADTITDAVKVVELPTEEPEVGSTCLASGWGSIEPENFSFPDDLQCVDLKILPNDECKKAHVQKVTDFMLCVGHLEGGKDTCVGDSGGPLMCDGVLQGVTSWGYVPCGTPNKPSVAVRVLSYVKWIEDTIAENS

Cc1cc(C(=O)NCc2ccc(CN)cc2)c(C)n1Cc1csc(-c2ccccc2)n1 [Example 1, 2,5-Dimethyl-1-(2-phenyl-thiazol-4-ylmethyl)-1H-pyrrole-3-carboxylic acid 4-aminomethyl-benzylamide]
IC50 (plasmin): > 40 µM
IC50 (trypsin): > 40 µM
IC50 (Human plasma kallikrein): 0.063 µM
IC50 (thrombin): > 40 µM
Cmax [1]: 81 ng/mL
Tmax [1]: 4.67 h
IC50 (Factor XIIa): > 10 µM
IC50 (Human KLK1): > 10 µM

Cc1cc(CN)ccc1CNC(=O)c1cc(C)n(Cc2csc(-c3ccccc3)n2)c1C [Example 2, 2,5-Dimethyl-1-(2-phenyl-thiazol-4-ylmethyl)-1H-pyrrole-3-carboxylic acid 4-aminomethyl-2-methyl-benzylamide]
IC50 (plasmin): 24.8 µM
IC50 (trypsin): > 40 µM
IC50 (Human plasma kallikrein): 0.015 µM
IC50 (thrombin): > 40 µM
Cmax [1]: 59 ng/mL
Tmax [1]: 5 h
IC50 (Factor XIIa): > 10 µM
IC50 (Human KLK1): > 10 µM

NCc1ccc(CNC(=O)c2cn(Cc3csc(-c4ccccc4)n3)nc2C(F)(F)F)cc1 [Example 83, 1-(2-Phenyl-thiazol-4-ylmethyl)-3-trifluoromethyl-1H-pyrazole-4-carboxylic acid 4-aminomethyl-benzylamide]
IC50 (plasmin): 27.2 µM
IC50 (trypsin): 26.6 µM
IC50 (Human plasma kallikrein): 0.452 µM
IC50 (thrombin): > 40 µM
IC50 (Factor XIIa): > 8.51 µM
IC50 (Human KLK1): > 10 µM

NCc1ccc(CNC(=O)c2cn(Cc3ccccc3)nc2-c2ccccc2)cc1 [Example 84, 1-Benzyl-3-phenyl-1H-pyrazole-4-carboxylic acid 4-aminomethyl-benzylamide]
IC50 (plasmin): > 40 µM
IC50 (trypsin): > 40 µM
IC50 (Human plasma kallikrein): 8.38 µM
IC50 (thrombin): > 40 µM
IC50 (Factor XIIa): > 10 µM
IC50 (Human KLK1): > 10 µM

Cc1cnn(Cc2ccc(Cn3c(C)cc(C(=O)NCc4c(C)cc(CN)cc4C)c3C)cc2)c1 [Example 101, 2,5-Dimethyl-1-[4-(4-methyl-pyrazol-1-ylmethyl)-benzyl]-1H-pyrrole-3-carboxylic acid 4-aminomethyl-2,6-dimethyl-benzylamide]
IC50 (Human plasma kallikrein): 0.004 µM
Cmax [1]: 67 ng/mL
Tmax [1]: 5 h
IC50 (Factor XIIa): > 10 µM
IC50 (Human KLK1): 6.31 µM

Cc1ccc2cc(Cn3cc(C(=O)NCc4c(C)cc(CN)cc4C)c(C)n3)ccc2n1 [Example 124, 3-Methyl-1-(2-methyl-quinolin-6-ylmethyl)-1H-pyrazole-4-carboxylic acid 4-aminomethyl-2,6-dimethyl-benzylamide]
IC50 (Human plasma kallikrein): 0.002 µM
IC50 (Factor XIIa): > 40 µM
IC50 (Human KLK1): 0.301 µM

Cc1ccc2cc(Cn3ncc(C(=O)NCc4c(C)cc(CN)cc4C)c3C)ccc2n1 [Example 125, 5-Methyl-1-(2-methyl-quinolin-6-ylmethyl)-1H-pyrazole-4-carboxylic acid 4-aminomethyl-2,6-dimethyl-benzylamide]
IC50 (Human plasma kallikrein): 0.003 µM
IC50 (Factor XIIa): > 40 µM
IC50 (Human KLK1): 0.657 µM
